Results as given in patent US10907168B2, “Jasmonic acid pathway activator” (MEDICAGO INC., priority 2015, dated 2021).

Key:
Type in all cases: in vivo, Nicotiana benthamiana
N. benthamiana leaves = assay: Leaf protein profile, Coomassie blue-stained SDS-PAGE and MS/MS identification; conditions: uninfiltrated leaves; ~30-kDa, ~25-kDa and ~6-kDa mass ranges; seven days post-treatment
Protocol: (§1) Forty-two day-old N. benthamiana plants grown in greenhouse were used for the experiments. Each plant was sprayed evenly with 50 ml of 0.5 mM, 1 mM or 2 mM MeJA in water containing 0.1% (v/v) Triton X-100 (Sigma-Aldrich, Mississauga ON, Canada), or with 50 ml of 1 mM arachidonic acid (Girard et al., 2007) in the same solvent, and transferred for seven days in a Conviron growth chamber (Conviron, Winnipeg MB, Canada). Plants sprayed with 50 ml of 0.1% (v/v) Triton X-100 in water were used in parallel as negative controls to avoid confounding effects due to experimental conditions. […]
(§2) Whole leaf proteins were extracted from three 1-cm^2 leaf discs in 400 μl of ice-cold 50 mM Tris-HCl, pH 7.5, containing 150 mM NaCl, by disrupting the leaf samples with tungsten carbide beads (Qiagen, Mississauga ON, Canada) in a Mini-Beadbeater apparatus (BioSpec, Bartlesville Okla., USA). […] RuBisCO small subunit was detected using polyclonal IgG raised in rabbit against a synthetic small subunit peptide (Agrisera, Vännäs, Sweden) and alkaline phosphatase-conjugated goat anti-rabbit IgG as secondary antibodies (Sigma-Aldrich). RuBisCO large subunit was detected using polyclonal IgG raised in hen against a synthetic large subunit peptide (Agrisera) and alkaline phosphatase-conjugated goat anti-chicken IgG as secondary antibodies (Sigma-Aldrich). […]

[1] = tested on: cathepsin D/E-like A1 Asp proteases; assay: Protease assay in leaf crude extracts, MOCAc substrate; conditions: seven days post-treatment
[2] = tested on: trypsin-like S1 Ser proteases; assay: Protease assay in leaf crude extracts, Z-Arg-MCA substrate; conditions: 0.5 and 1 mM doses, seven days post-treatment
Protocol: as §1, §2

[3] = tested on: cathepsin L-like C1A Cys proteases; assay: Protease assay in leaf crude extracts, Z-Phe-Arg-MCA substrate; conditions: three tested doses (0.5, 1, 2 mM), seven days post-treatment, ANOVA P>0.05
Protocol: as §1, §2

CC/C=C\C[C@H]1C(=O)CC[C@@H]1CC(=O)OC [MeJA, methyl jasmonate] was tested, and the “up-regulation of proteins on Coomassie blue-stained gels” value (N. benthamiana leaves) was “up-regulation of several proteins”, the “cathepsin D/E-like activity” value ([1]; agroinfiltrated leaves) was “also observed in agroinfiltrated leaves” and the “cathepsin D/E-like activity” value ([1]; uninfiltrated plants, P<0.001) was “dose-dependent decrease”. The trypsin-like activity [2] was “minimal or no increase in activity” and the “cathepsin L-like activity” value [3] was “no impact”.
